# Laboratory results taken from patent publication EP4678638A1, “NEW E3 UBIQUITIN LIGASE LIGAND, PROTEIN DEGRADATION AGENT AND USE THEREOF” (priority 2023, dated 2024).
# Target: T1, IRAK4 (Homo sapiens, UniProt Q9NWZ3)
# T1 construct: evaluate the effects of the compounds of the present disclosure on the expression of target proteins in cells; endogenous in cells; host or cells: hPBMC
# T1 sequence (Q9NWZ3 1-460): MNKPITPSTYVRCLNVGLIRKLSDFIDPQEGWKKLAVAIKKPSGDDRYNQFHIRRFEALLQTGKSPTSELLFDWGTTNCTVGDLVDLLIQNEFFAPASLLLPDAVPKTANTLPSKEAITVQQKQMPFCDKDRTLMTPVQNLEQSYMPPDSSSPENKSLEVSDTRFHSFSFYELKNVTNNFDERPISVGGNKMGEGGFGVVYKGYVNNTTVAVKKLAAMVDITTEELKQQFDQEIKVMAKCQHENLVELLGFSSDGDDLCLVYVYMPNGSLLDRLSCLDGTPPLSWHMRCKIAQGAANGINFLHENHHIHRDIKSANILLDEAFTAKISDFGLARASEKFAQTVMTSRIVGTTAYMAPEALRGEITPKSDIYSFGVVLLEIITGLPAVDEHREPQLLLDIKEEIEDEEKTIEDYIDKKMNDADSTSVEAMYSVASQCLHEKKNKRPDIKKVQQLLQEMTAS
# Test: Western blot degradation of IRAK4 (hPBMC)
# Format: cell-based
# Details: Table D1
# Method: Conventional Western blot assay was performed to evaluate the effects of the compounds of the present disclosure on the expression of target proteins in cells.
# (1) Cell Seeding and Protein Harvesting: The selected cells were processed according to the cell seeding procedure and protein harvesting procedure in Table III-2. Table III-2 Cell Seeding and Protein Harvesting Procedures
# (2) To the collected supernatant, 5X SDS sample loading buffer was added, followed by denaturation at 95°C for 5 minutes. The denatured samples were then separated by SDS-PAGE electrophoresis on a polyacrylamide gel. Proteins were transferred to a nitrocellulose membrane (0.45 µm NC membrane), blocked with blocking buffer at room temperature for 1 hour, and subjected to antibody incubation and development procedures according to the antibody manufacturer's instructions (Cell Signaling Technology).
# Half-Maximal Degradation Concentration value (the drug concentration required for degrading proteins by 50%, abbreviated as DC50) reads method: comparing the grayscale values of Western blot bands from drug-treated samples with those from blank DMSO-treated controls, and identifying the drug concentration range at which the grayscale value is half that of the DMSO-treated control bands.
# DC50 values can be calculated using ImageJ software to measure grayscale values of Western blot bands from drug-treated samples. The concentration-response curve is fitted to estimate the drug concentration corresponding to half the grayscale value.
# Target protein remaining (%) refers to the percentage of target protein remaining in hPBMC cells after treatment with protein degrader compounds.
# Calculation method for target protein remaining (%): Use ImageJ software to measure grayscale values of Western blot bands from drug (protein degrader)-treated samples. The grayscale value of drug-treated bands is divided by that of internal control protein bands, and the resulting quotient is normalized to obtain the relative percentage of remaining target protein after protein degrader treatment.
# Target protein degradation rate (%) = 100% - target protein remaining (%).
row,Compound,Degradation of substrate protein IRAK4 (substrate protein remaining %)
1,"CC(C)Nc1cc(-n2ccc3cc(C#N)cnc32)ncc1C(=O)NC1CCN(Cc2cccnc2C2CCC(=O)NC2=O)CC1 (stereo not shown) [GT-07546, 6-(5-cyano-1H-pyrrolo[2,3-b]pyridin-1-yl)-N-(1-((2-(2,6-dioxopiperidin-3-yl)pyridin-3-yl)methyl)piperidin-4-yl)-4-(isopropylamino)nicotinamide]",A (A is defined as 0% ≤ substrate protein remaining % ≤ 80%)
2,"COc1cc2nn(C3CCN(Cc4cccnc4C4CCC(=O)NC4=O)CC3)cc2cc1NC(=O)c1cccc(C(F)(F)F)n1 (stereo not shown) [GT-07550, N-(2-(1-((2-(2,6-dioxopiperidin-3-yl)pyridin-3-yl)methyl)piperidin-4-yl)-6-methoxy-2H-indazol-5-yl)-6-(trifluoromethyl)picolinamide]",A (A is defined as 0% ≤ substrate protein remaining % ≤ 80%)
3,"CC(C)(O)c1cc2nc(C3CCN(Cc4ccnc(N5CCC(=O)NC5=O)c4)CC3)sc2cc1NC(=O)c1cccc(C(F)(F)F)n1 [GT-07619, N-(2-(1-((2-(2,4-dioxotetrahydropyrimidin-1(2H)-yl)pyridin-4-yl)methyl)piperidin-4-yl)-5-(2-hydroxypropan-2-yl)benzo[d]thiazol-6-yl)-6-(trifluoromethyl)picolinamide]",A (A is defined as 0% ≤ substrate protein remaining % ≤ 80%)
4,"CC(C)(O)c1cc2nc(C3CCN(Cc4ccnc(C5CCC(=O)NC5=O)c4)CC3)sc2cc1NC(=O)c1cccc(C(F)(F)F)n1 (stereo not shown) [GT-07622, N-(2-(1-((2-(2,6-dioxopiperidin-3-yl)pyridin-4-yl)methyl)piperidin-4-yl)-5-(2-hydroxypropan-2-yl)benzo[d]thiazol-6-yl)-6-(trifluoromethyl)picolinamide]",A (A is defined as 0% ≤ substrate protein remaining % ≤ 80%)
5,"CC(C)(O)c1cc2nc(C3CCN(Cc4cccnc4C4CCC(=O)NC4=O)CC3)sc2cc1NC(=O)c1cccc(C(F)(F)F)n1 (stereo not shown) [GT-07625, N-(2-(1-((2-(2,6-dioxopiperidin-3-yl)pyridin-3-yl)methyl)piperidin-4-yl)-5-(2-hydroxypropan-2-yl)benzo[d]thiazol-6-yl)-6-(trifluoromethyl)picolinamide]",A (A is defined as 0% ≤ substrate protein remaining % ≤ 80%)
6,"CC(C)(O)c1cc2nc(C3CCN(Cc4ccnc(N5CCC(=O)NC5=O)c4)CC3)oc2cc1NC(=O)c1cccc(C(F)(F)F)n1 [GT-07627, N-(2-(1-((2-(2,4-dioxotetrahydropyrimidin-1(2H)-yl)pyridin-4-yl)methyl)piperidin-4-yl)-5-(2-hydroxypropan-2-yl)benzo[d]oxazol-6-yl)-6-(trifluoromethyl)picolinamide]",A (A is defined as 0% ≤ substrate protein remaining % ≤ 80%)
7,"CC(C)(O)c1cc2nc(C3CCN(Cc4cccnc4C4CCC(=O)NC4=O)CC3)oc2cc1NC(=O)c1cccc(C(F)(F)F)n1 (stereo not shown) [GT-07631, N-(2-(1-((2-(2,6-dioxopiperidin-3-yl)pyridin-3-yl)methyl)piperidin-4-yl)-5-(2-hydroxypropan-2-yl)benzo[d]oxazol-6-yl)-6-(trifluoromethyl)picolinamide]",A (A is defined as 0% ≤ substrate protein remaining % ≤ 80%)
